# Target: T1, HPK1 (Homo sapiens, UniProt Q92918)
# T1 construct: purchased Invitrogen
# Assay: HPK1 biochemical enzyme assay (microfluidic mobility shift assay)
# Settings: 1000 uM (1 mM) ATP; Caliper mobility shift; 1.5 nM HPK1; 30 min preincubation; read-out: HPK1 1000UMATP caliper IC50
# In short: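 Microfluidic mobility-shift readout with 1.5 nM HPK1 in pH 7.4 buffer; compounds (ten-point curves, top 3 μM final) preincubated 30 min with enzyme/substrate. Reaction started with 1 mM ATP and 1 μM substrate plus 5 mM MgCl2, run 60 min at RT. IC50 values binned into activity classes.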
# T1 sequence (Q92918 whole entry): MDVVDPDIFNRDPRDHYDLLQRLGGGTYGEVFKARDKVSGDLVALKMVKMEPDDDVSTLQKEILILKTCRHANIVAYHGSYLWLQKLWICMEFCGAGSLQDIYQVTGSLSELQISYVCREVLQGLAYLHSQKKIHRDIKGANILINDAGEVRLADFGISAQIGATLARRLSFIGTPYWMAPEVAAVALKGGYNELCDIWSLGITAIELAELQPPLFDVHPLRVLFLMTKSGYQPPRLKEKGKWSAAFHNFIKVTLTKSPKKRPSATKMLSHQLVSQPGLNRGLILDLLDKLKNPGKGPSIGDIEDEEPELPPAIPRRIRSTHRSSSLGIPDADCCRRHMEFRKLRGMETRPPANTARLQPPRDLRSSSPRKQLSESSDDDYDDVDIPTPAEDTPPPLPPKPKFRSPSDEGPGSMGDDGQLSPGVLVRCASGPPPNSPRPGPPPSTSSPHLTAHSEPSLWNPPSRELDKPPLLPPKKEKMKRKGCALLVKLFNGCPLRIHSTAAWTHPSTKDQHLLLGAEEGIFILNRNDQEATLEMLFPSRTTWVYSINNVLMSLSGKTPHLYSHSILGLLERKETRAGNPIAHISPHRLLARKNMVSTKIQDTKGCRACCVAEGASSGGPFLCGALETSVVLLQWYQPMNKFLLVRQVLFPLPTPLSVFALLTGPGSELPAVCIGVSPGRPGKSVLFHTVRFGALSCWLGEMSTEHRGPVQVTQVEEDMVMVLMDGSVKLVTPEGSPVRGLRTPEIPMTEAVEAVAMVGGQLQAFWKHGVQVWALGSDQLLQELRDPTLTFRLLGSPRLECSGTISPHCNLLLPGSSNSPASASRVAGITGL
row,Structure (SMILES),IC50
1,"O=c1[nH]ccc2nc(-c3cc(CN4CCCCC4)ccc3F)cc(Nc3ccc(N4CCC(O)CC4)cn3)c12 [I-150, 2-[2-fluoro-5-(1-piperidyl-methyl)phenyl]-4-[[5-(4-hydroxy-1-piperidyl)-2-pyridyl]amino]-6H-1,6-naphthyridin-5-one]",100 to 1000 nM
2,"O=C(Nc1ccc(-c2cc(Nc3ccc(N4CCC(O)CC4)cn3)c3c(=O)[nH]ccc3n2)c(F)c1)C1CCC1 [I-152, N-[3-fluoro-4-[4-[[5-(4-hydroxy-1-piperidyl)-2-pyridyl]amino]-5-oxo-6H-1,6-naphthyridin-2-yl]phenyl] cyclobutane-carboxamide]",100 to 1000 nM
3,CC1(C(=O)Nc2ccc(-c3cc(Nc4ccc(N5CCC(O)CC5)cn4)c4c(=O)[nH]ccc4n3)c(F)c2)CC1 [I-153],100 to 1000 nM
4,"O=C(Nc1ccc(-c2cc(Nc3ccc(N4CCC(O)CC4)cn3)c3c(=O)[nH]ccc3n2)c(F)c1)C1CCCC1 [I-154, N-[3-fluoro-4-[4-[[5-(4-hydroxy-1-piperidyl)-2-pyridyl]amino]-5-oxo-6H-1,6-naphthyridin-2-yl]phenyl] cyclo-pentane carboxamide]",100 to 1000 nM
5,"O=C(c1ccc(-c2cc(Nc3ccc(N4CCOCC4)cn3)c3c(=O)[nH]ccc3n2)c(F)c1)N1CCCCC1 [I-155, 2-[2-fluoro-4-(piperidine-1-carbonyl)phenyl]-4-[(5-morpholino-2-pyridyl)amino]-6H-1,6-naphthyridin-5-one]",> 1000 nM
6,COc1cc(-c2cc(Nc3ccc(N4CCNCC4)cn3)c3c(=O)[nH]ccc3n2)c(F)cc1C(=O)N1CCCCC1 [I-157],> 1000 nM
7,"Cc1c[nH]c(=O)c2c(Nc3ccc(N4CCC(O)CC4)cn3)cc(-c3ccc(NC(=O)C4CCCCC4)cc3F)nc12 [I-158, N-[3-fluoro-4-[4-[[5-(4-hydroxy-1-piperidyl)-2-pyridyl]amino]-8-methyl-5-oxo-6H-1,6-naphthyridin-2-yl]phenyl] cyclohexane carboxamide]",≤ 100 nM
8,"O=C(Nc1ccc(-c2cc(Nc3ccc(N4CCOCC4)cn3)c3c(=O)[nH]ccc3n2)c(F)c1)C1CCCCC1 [I-159, N-[3-fluoro-4-[4-[(5-morpholino-2-pyridyl)amino]-5-oxo-6H-1,6-naphthyridin-2-yl]phenyl] cyclohexane carboxamide]",≤ 100 nM
9,"O=C(Nc1ccc(-c2cc(Nc3ccc(C(=O)N4CCCC4)cc3)c3c(=O)[nH]ccc3n2)c(F)c1)C1CCCCC1 [I-160, N-[3-fluoro-4-[5-oxo-4-[4-(pyrrolidine-1-carbonyl)anilino]-6H-1,6-naphthyridin-2-yl]phenyl] cyclohexane carboxamide]",≤ 100 nM
10,"COc1cc(-c2cc(Nc3ccc(N4CCC(O)CC4)cn3)c3c(=O)[nH]cc(C)c3n2)c(F)cc1C(=O)N1CCCCC1 [I-163, 2-[2-fluoro-5-methoxy-4-(piperidine-1-carbonyl)phenyl]-4-[[5-(4-hydroxy-1-piperidyl)-2-pyridyl]amino]-8-methyl-6H-1,6-naphthyridin-5-one]",> 1000 nM
11,"COc1cc(-c2cc(Nc3ccc(N4CCOCC4)cn3)c3c(=O)[nH]ccc3n2)c(F)cc1C(=O)N1CCCCC1 [I-164, 2-[2-fluoro-5-methoxy-4-(piperidine-1-carbonyl)phenyl]-4-[(5-morpholino-2-pyridyl)amino]-6H-1,6-naphthyridin-5-one]",≤ 100 nM
12,"COc1cc(-c2cc(Nc3ccc(C(=O)N4CCCC4)cc3)c3c(=O)[nH]ccc3n2)c(F)cc1C(=O)N1CCCCC1 [I-165, 2-[2-fluoro-5-methoxy-4-(piperidine-1-carbonyl)phenyl]-4-[4-(pyrrolidine-1-carbonyl)amino]-6H-1,6-naphthyridin-5-one]",100 to 1000 nM
13,"COc1c(C(=O)N2CCCCC2)ccc(-c2cc(Nc3ccc(N4CCC(O)CC4)cn3)c3c(=O)[nH]ccc3n2)c1F [I-166, 2-[2-fluoro-3-methoxy-4-(piperidine-1-carbonyl)phenyl]-4-[[5-(4-hydroxy-1-piperidyl)-2-pyridyl]amino]-6H-1,6-naphthyridin-5-one]",≤ 100 nM

# More lines, now with the values ahead:
row,IC50,Structure (SMILES)
1,≤ 100 nM,"Cc1cc(F)c(-c2cc(Nc3ccc(N4CCC(O)CC4)cn3)c3c(=O)[nH]ccc3n2)cc1C(=O)N1CCCCC1 [I-167, 2-[2-fluoro-4-methyl-5-(piperidine-1-carbonyl)phenyl]-4-[[5-(4-hydroxy-1-piperidyl)-2-pyridyl]amino]-6H-1,6-naphthyridin-5-one]"
2,≤ 100 nM,"Cc1n[nH]c2cc(F)c(-c3cc(Nc4ccc(N5CCNCC5)cn4)c4c(=O)[nH]ccc4n3)cc12 [I-168, 2-(6-fluoro-3-methyl-1H-indazol-5-yl)-4-[[5-piperazin-1-yl-2-pyridyl)amino]-6H-1,6-naphthyridin-5-one]"
3,100 to 1000 nM,"COc1cc(-c2cc(Nc3ccc(N4CCC(F)(F)CC4)cn3)c3c(=O)[nH]ccc3n2)c(F)cc1C(=O)N1CCCCC1 [I-169, 4-[[5-(4,4-difluoro-1-piperidyl)-2-pyridyl]amino]-2-[2-fluoro-5-methoxy-4-(piperidine-1-carbonyl)phenyl]-6H-1,6-naphthyridin-5-one]"
4,100 to 1000 nM,"COc1cc(-c2cc(Nc3ccc(N4C[C@H]5CC[C@@H](C4)O5)cn3)c3c(=O)[nH]ccc3n2)c(F)cc1C(=O)N1CCCCC1 [I-170, 2-[2-fluoro-5-methoxy-4-(piperidine-1-carbonyl)phenyl]-4-[[5-[(1R,5S)-8-oxa-3-azabicyclo [3.2.1]octan-3-yl]-2-pyridyl]amino]-6H-1,6-naphthyridin-5-one]"
5,100 to 1000 nM,"O=c1[nH]ccc2nc(-c3cccc(CN4CCOCC4)c3F)cc(Nc3ccc(N4CCC(O)CC4)cn3)c12 [I-171, 2-[2-fluoro-3-(morpholino-methyl)phenyl]-4-[[5-(4-hydroxy-1-piperidyl)-2-pyridyl]amino]-6H-1,6-naphthyridin-5-one]"
6,> 1000 nM,"O=C(Nc1ccc(-c2cc(Nc3ccc(N4CCC(F)(F)CC4)cn3)c3c(=O)[nH]ccc3n2)c(F)c1)C1CCCCC1 [I-172, N-[4-[4-[[5-(4,4-difluoro-1-piperidyl)-2-pyridyl]amino]-5-oxo-6H-1,6-naphthyridin-2-yl]-3-fluoro-phenyl] cyclohexane-carboxamide]"
7,100 to 1000 nM,"O=C(Nc1ccc(-c2cc(Nc3ccc(N4C[C@H]5CC[C@@H](C4)O5)cn3)c3c(=O)[nH]ccc3n2)c(F)c1)C1CCCCC1 [I-173, N-[3-fluoro-4-[4-[[5-[(1R,5S)-8-oxa-3-azabicyclo [3.2.1]octan-3-yl]-2-pyridyl]amino]-5-oxo-6H-1,6-naphthyridin-2-yl]phenyl]-cyclohexane-carboxamide]"
8,> 1000 nM,"COc1cc(-c2cc(Nc3ccc(N4CC(F)(F)C4)cn3)c3c(=O)[nH]ccc3n2)c(F)cc1C(=O)N1CCCCC1 [I-174, 4-[[5-(3,3-difluoro-azetidin-1-yl)-2-pyridyl]amino]-2-[2-fluoro-5-methoxy-4-(piperidine-1-carbonyl)phenyl]-6H-1,6-naphthyridin-5-one]"
9,100 to 1000 nM,"COc1cc(-c2cc(Nc3ccc(N4CCNCC4)cn3)c3c(=O)[nH]ccc3n2)c(F)cc1C(=O)N1CCC1 [I-175, 2-[4-(azetidine-1-carbonyl)-2-fluoro-5-methoxy-phenyl]-4-[(5-piperazin-1-yl-2-pyridyl)amino]-6H-1,6-naphthyridin-5-one]"
10,≤ 100 nM,"COc1cc(-c2cc(Nc3ccc(N4CCNCC4)cn3)c3c(=O)[nH]ccc3n2)c(F)cc1C(=O)N(C)C [I-176, 5-fluoro-2-methoxy-N,N-dimethyl-4-[5-oxo-4-[(5-piperazin-1-yl-2-pyridyl)amino]-6H-1,6-naphthyridin-2-yl] benzamide]"
11,≤ 100 nM,"O=c1[nH]ccc2nc(-c3cc(CN4CCCC4)ccc3F)cc(Nc3ccc(N4CCC(O)CC4)cn3)c12 [I-177, 2-[2-fluoro-5-(pyrrolidin-1-ylmethyl)phenyl]-4-[[5-(4-hydroxy-1-piperidyl)-2-pyridyl]amino]-6H-1,6-naphthyridin-5-one]"
12,100 to 1000 nM,"Cc1nc2cc(-c3cc(Nc4ccc(N5CCNCC5)cn4)c4c(=O)[nH]ccc4n3)c(F)cc2o1 [I-178, 2-(6-fluoro-2-methyl-1,3-benzoxazol-5-yl)-4-[(5-piperazin-1-yl-2-pyridyl)amino]-6H-1,6-naphthyridin-5-one]"
13,100 to 1000 nM,"O=C(Nc1ccc(-c2cc(Nc3ccc(N4CCC(O)CC4)cn3)c3c(=O)[nH]ccc3n2)c(F)c1)C1CC2CCC1C2 (stereo not shown) [I-179, N-[3-fluoro-4-[4-[[5-(4-hydroxy-1-piperidyl)-2-pyridyl]amino]-5-oxo-6H-1,6-naphthyridin-2-yl]phenyl] norbornane-2-carboxamide]"
14,≤ 100 nM,"CN1CCN(Cc2ccc(-c3cc(Nc4ccc(N5CCC(O)CC5)cn4)c4c(=O)[nH]ccc4n3)c(F)c2)CC1 [I-180, 2-[2-fluoro-4-[(4-methyl-piperazin-1-yl)methyl]phenyl]-4-[[5-(4-hydroxy-1-piperidyl)-2-pyridyl]amino]-6H-1,6-naphthyridin-5-one]"
15,> 1000 nM,"O=c1[nH]ccc2nc(-c3ccc(CN4CCOCC4)cc3F)cc(Nc3ccc(N4CCC(O)CC4)cn3)c12 [I-181, 2-[2-fluoro-4-(morpholino-methyl)phenyl]-4-[[5-(4-hydroxy-1-piperidyl)-2-pyridyl]amino]-6H-1,6-naphthyridin-5-one]"
16,> 1000 nM,"Cc1nc2cc(-c3cc(Nc4ccc(N5CCC(O)CC5)cn4)c4c(=O)[nH]ccc4n3)c(F)cc2o1 [I-182, 2-(6-fluoro-2-methyl-1,3-benzoxazol-5-yl)-4-[[5-(4-hydroxy-1-piperidyl)-2-pyridyl]amino]-6H-1,6-naphthyridin-5-one]"
17,≤ 100 nM,"O=c1[nH]ccc2nc(-c3cccc(CN4CCCCC4)c3F)cc(Nc3ccc(N4CCC(O)CC4)cn3)c12 [I-183, 2-[2-fluoro-3-(1-piperidyl-methyl)phenyl]-4-[[5-(4-hydroxy-1-piperidyl)-2-pyridyl]amino]-6H-1,6-naphthyridin-5-one]"
18,> 1000 nM,"CN1CCN(c2ccc(Nc3cc(-c4ccc(NC(=O)C5CCCCC5)cc4F)nc4cc[nH]c(=O)c34)nc2)CC1 [I-184, N-[3-fluoro-4-[4-[[5-(4-methyl-piperazin-1-yl)-2-pyridyl]amino]-5-oxo-6H-1,6-naphthyridin-2-yl]phenyl] cyclohexane carboxamide]"

# From patent US12252488B2 (Nimbus Saturn, Inc., priority 2021, dated 2025)
